Laboratory results: ChEMBL document CHEMBL1152560, “Substituted 2-arylbenzothiazoles as kinase inhibitors: hit-to-lead optimization” (Bioorg Med Chem, 2009)

Experiments:
[1] = target: T1, Ephrin type-B receptor 4 (Homo sapiens) (UniProt P54760); test: Residual activity of EPHB4 at 1 uM by microplate scintillation counting
T1 sequence (whole entry): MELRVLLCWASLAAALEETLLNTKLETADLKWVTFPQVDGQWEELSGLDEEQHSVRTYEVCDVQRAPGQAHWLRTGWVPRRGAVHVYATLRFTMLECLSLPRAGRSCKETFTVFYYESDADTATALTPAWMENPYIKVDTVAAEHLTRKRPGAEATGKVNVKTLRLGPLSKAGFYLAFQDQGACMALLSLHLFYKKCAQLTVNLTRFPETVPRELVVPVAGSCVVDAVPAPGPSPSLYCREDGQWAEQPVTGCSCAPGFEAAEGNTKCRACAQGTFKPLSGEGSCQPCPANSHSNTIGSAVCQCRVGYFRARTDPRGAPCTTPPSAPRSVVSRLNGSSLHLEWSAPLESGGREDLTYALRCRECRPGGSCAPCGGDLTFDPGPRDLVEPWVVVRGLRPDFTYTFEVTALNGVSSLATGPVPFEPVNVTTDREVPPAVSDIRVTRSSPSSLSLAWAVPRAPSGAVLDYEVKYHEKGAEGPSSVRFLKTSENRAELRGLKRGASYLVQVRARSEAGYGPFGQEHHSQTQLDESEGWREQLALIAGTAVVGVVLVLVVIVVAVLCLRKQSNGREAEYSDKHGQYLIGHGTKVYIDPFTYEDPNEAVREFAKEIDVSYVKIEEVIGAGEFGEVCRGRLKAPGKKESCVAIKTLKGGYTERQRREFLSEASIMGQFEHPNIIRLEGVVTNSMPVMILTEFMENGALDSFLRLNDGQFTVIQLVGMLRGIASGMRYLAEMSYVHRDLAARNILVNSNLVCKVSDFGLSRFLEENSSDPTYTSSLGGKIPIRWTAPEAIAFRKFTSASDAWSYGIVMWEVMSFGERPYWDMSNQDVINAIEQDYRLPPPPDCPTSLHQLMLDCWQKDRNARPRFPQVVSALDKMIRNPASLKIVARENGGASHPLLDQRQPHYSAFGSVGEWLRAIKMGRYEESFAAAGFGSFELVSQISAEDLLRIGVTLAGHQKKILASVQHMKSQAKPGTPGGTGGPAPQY

[2] = target: Mitogen-activated protein kinase kinase kinase kinase 4 (Homo sapiens) (UniProt O95819); test: Residual activity of MAP4K4 at 1 uM by microplate scintillation counting
Chain of Mitogen-activated protein kinase kinase kinase kinase 4 (Homo sapiens) (O95819 2-1239 limits assumed): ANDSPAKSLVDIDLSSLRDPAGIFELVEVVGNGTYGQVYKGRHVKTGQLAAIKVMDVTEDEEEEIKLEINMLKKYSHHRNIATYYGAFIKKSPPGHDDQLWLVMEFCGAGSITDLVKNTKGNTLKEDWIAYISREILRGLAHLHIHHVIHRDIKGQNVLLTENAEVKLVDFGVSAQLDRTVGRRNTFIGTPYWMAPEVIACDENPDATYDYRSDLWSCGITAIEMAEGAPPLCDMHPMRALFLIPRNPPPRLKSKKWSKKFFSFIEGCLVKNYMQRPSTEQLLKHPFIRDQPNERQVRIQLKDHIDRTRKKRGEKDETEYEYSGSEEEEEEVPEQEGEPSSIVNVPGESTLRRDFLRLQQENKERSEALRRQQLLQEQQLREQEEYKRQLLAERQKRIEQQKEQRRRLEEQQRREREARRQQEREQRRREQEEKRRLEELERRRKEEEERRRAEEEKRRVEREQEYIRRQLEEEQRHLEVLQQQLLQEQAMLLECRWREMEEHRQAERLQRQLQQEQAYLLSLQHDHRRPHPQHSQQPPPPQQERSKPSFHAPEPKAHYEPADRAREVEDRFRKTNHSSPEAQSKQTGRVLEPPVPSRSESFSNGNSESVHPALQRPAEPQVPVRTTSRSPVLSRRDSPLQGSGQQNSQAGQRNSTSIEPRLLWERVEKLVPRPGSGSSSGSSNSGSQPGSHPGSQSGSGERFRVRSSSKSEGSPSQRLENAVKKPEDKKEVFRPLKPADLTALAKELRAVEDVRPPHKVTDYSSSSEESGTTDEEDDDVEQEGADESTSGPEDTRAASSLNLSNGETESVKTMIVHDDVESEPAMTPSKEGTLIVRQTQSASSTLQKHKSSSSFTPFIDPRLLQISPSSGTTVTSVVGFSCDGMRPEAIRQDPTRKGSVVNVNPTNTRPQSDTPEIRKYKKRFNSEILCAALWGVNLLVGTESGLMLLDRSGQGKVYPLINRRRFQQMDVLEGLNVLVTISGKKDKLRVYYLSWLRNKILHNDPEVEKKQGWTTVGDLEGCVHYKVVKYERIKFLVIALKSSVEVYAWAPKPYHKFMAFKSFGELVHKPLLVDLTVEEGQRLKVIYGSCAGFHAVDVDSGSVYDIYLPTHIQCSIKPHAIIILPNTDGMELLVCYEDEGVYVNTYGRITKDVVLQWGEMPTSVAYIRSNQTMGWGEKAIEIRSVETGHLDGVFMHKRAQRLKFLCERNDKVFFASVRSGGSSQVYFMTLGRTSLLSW

[3] = target: T2, NUAK family SNF1-like kinase 1 (Homo sapiens) (UniProt O60285); test: Residual activity of ARK5 at 10 uM by microplate scintillation counting
T2 sequence (whole entry): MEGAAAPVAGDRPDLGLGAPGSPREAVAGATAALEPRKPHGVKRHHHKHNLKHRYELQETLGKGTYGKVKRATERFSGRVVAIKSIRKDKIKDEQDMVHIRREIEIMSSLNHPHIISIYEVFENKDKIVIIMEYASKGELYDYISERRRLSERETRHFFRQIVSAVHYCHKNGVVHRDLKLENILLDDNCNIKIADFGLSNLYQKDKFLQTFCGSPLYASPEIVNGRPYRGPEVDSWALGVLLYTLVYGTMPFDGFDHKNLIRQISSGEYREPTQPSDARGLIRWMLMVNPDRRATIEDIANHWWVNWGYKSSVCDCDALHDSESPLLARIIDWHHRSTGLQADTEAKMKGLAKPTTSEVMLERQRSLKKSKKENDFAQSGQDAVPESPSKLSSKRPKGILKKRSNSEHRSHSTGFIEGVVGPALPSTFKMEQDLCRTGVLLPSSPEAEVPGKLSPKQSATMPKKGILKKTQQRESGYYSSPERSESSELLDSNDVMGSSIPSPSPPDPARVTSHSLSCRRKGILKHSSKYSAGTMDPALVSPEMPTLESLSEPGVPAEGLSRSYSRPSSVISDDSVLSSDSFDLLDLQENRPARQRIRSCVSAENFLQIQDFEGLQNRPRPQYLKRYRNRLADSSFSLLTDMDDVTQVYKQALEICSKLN

[4] = target: Insulin receptor (Homo sapiens) (UniProt P06213); test: Residual activity of INSR at 10 uM by microplate scintillation counting
Chain of Insulin receptor (Homo sapiens) (P06213 28-758 limits assumed): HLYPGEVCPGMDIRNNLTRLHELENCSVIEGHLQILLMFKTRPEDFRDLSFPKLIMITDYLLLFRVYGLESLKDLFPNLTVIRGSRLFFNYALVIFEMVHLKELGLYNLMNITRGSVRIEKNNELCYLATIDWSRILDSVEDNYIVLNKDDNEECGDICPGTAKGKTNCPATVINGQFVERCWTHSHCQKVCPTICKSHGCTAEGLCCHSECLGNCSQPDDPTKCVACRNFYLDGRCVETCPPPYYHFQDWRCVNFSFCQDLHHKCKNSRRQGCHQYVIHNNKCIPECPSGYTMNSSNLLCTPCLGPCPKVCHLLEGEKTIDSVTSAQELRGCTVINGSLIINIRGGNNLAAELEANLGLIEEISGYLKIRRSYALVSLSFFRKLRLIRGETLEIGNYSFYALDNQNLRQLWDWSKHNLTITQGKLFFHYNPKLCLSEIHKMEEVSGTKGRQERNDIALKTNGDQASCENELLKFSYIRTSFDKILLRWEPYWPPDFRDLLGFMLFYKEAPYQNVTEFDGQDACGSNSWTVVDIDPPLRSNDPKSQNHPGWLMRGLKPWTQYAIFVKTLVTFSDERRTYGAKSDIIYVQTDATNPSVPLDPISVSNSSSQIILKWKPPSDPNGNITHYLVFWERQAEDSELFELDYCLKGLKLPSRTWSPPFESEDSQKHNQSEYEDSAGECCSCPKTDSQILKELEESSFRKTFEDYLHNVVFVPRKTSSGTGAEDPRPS
Chain of Insulin receptor (Homo sapiens) (P06213 763-1382 limits assumed): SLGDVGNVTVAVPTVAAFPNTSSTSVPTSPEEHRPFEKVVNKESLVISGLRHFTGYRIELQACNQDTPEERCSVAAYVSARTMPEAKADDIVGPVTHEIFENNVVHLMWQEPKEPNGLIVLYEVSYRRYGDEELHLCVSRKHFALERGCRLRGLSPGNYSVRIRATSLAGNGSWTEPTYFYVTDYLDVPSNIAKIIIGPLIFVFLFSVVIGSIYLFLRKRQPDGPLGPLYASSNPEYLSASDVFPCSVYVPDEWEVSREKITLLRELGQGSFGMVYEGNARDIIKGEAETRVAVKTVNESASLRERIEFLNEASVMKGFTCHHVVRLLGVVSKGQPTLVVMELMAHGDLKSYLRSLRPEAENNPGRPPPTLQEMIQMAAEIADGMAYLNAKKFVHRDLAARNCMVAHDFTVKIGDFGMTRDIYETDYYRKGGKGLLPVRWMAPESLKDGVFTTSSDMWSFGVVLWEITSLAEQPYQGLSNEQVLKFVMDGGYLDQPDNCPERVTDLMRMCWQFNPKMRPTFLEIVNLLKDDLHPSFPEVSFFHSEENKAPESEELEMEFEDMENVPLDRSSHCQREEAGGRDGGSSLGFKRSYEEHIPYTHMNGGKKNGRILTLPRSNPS

[5] = target: T3, Tyrosine-protein kinase Mer (Homo sapiens) (UniProt Q12866); test: Residual activity of MERTK at 10 uM by microplate scintillation counting
T3 sequence (whole entry): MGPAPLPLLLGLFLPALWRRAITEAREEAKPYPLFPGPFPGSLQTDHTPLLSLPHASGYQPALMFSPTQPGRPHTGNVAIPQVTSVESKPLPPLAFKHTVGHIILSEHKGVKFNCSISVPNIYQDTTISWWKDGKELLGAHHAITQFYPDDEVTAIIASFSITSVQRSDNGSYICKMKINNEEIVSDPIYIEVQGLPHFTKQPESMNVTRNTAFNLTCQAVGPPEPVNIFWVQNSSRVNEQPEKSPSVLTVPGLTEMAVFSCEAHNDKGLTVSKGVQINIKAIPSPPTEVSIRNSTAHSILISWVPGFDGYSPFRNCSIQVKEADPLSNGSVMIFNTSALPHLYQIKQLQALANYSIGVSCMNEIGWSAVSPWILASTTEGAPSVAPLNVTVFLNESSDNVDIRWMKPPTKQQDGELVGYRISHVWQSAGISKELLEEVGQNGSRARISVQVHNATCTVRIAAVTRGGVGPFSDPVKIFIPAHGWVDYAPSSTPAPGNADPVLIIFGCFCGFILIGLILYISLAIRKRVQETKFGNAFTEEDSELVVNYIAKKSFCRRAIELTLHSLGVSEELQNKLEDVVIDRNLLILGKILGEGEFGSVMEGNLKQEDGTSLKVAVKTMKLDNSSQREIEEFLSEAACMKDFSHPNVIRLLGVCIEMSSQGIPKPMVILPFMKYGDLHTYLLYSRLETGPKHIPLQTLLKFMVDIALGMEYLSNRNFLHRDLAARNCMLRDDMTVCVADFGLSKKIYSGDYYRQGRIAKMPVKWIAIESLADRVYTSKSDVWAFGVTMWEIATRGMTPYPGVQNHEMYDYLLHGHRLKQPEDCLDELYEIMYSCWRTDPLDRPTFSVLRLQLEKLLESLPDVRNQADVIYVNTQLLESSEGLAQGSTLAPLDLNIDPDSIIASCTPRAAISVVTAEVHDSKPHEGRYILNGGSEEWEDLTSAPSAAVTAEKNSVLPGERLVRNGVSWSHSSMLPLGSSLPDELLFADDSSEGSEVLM

| residual activity [1] | residual activity [2] | residual activity [3] | residual activity [4] | residual activity [5] | Structure (SMILES) |
| --- | --- | --- | --- | --- | --- |
| 127% | 88% | 109% | 59% | 1% | COc1cc2c(Oc3ccc(-c4nc5ccccc5s4)cc3)ncnc2cc1OCCCN1CCCC1 |
| 114% | 97% | 139% | 29% | 2% | COc1cc2c(Oc3ccc(-c4nc5ccccc5s4)cc3F)ncnc2cc1OCCCN1CCN(C)CC1 |
| 127% | 81% | 127% | 33% | 3% | COc1cc2c(Oc3ccc(-c4nc5ccccc5s4)cc3)ncnc2cc1OCCCN1CCN(C)CC1 |
